# From patent US5914319A, “Antithrombotic agents” (Eli Lilly and Company, priority 1995, dated 1999)
# Structures can show the parent of a compound that is named as a salt.
# System: Human plasma
# Assay: Human plasma anticoagulation, thrombin time (TT)
# Assay type: biochemical
# Conditions: concentration required to double the thrombin time, linear extrapolation
# Description: (§1) Dog plasma and rat plasma is obtained from conscious mixed-breed hounds (either sex, Hazelton-LRE, Kalamazoo, Mich., U.S.A.) or from anesthetized male Sprague-Dawley rats (Harlan Sprague-Dawley, Inc., Indianapolis, Ind., U.S.A.) by venipuncture into 3.8 percent citrate. Fibrinogen is prepared from in-date ACD human blood as the fraction I-2 according to previous procedures and specifications. […] Human fibrinogen is also purchased as 98 percent pure/plasmin free from American Diagnostica, Greenwich, Conn. Coagulation reagents ACTIN, Thromboplastin, and Human plasma are from Baxter Healthcare Corp., Dade Division, Miami, Fla. Bovine thrombin from Parke-Davis ([…], Mich.) is used for coagulation assays in plasma.
# (§2) Coagulation assay procedures are as previously described. […] A CoAScreener coagulation instrument (American LABor, Inc.) is used for all coagulation assay measurements. The prothrombin time (PT) is measured by adding 0.05 mL saline and 0.05 mL Thromboplastin-C reagent to 0.05 mL test plasma. The activated partial thromboplastin time (APTT) is measured by incubation of 0.05 mL test plasma with 0.05 mL Actin reagent for 120 seconds followed by 0.05 mL CaCl2 (0.02M). The thrombin time (TT) is measured by adding 0.05 mL saline and 0.05 mL thrombin (10 NIH units/mL) to 0.05 mL test plasma. The compounds of Formula I are added to human or animal plasma over a wide range of concentrations to determine prolongation effects on the APTT, PT, and TT assays. Linear extrapolations are performed to estimate the concentrations required to double the clotting time for each assay.
row,Molecule,Human Plasma Anticoagulation 2× Clotting time (ng/mL) TT
1,"Cl.NC(N)=NC/C=C/CNC(=O)[C@@H]1CCCN1C(=O)[C@H](N)Cc1ccccc1 (relative stereo) [Example 8, D-Phe-Pro-NHCH2 -trans-CH=CHCH2 NHC(NH)NH2.HCl]",130 ng/mL
2,"Cl.NC[C@H]1CC[C@H](CNC(=O)[C@@H]2CCCN2C(=O)[C@H](N)Cc2ccccc2)CC1 (relative stereo) [Example 12, D-Phe-Pro-NHCH2 -trans-4-(aminomethyl)cyclohexane.HCl]","1,700 ng/mL"
3,"CCS(=O)(=O)N[C@H](CC1CCCCC1)C(=O)N1CCC[C@H]1C(=O)NCCCCN=C(N)N.Cl [Example 2, EtSO2 -D-Cha-Pro-Agm.HCl]",170 ng/mL
4,"CCOC(=O)N[C@H](Cc1ccccc1)C(=O)N1CCC[C@H]1C(=O)NCCCCN=C(N)N.Cl [Example 3, EtOCO-D-Phe-Pro-Agm.HCl]",590 ng/mL
5,"N=C(N)NCCCCCCNC(=O)[C@@H]1CCCN1C(=O)[C@H](N)Cc1ccccc1 [Example 5, D-Phe-Pro-NH(CH2)6 NHC(NH)NH2.HCl]","30,000 ng/mL"
6,"N=C(N)NCCCCCNC(=O)[C@@H]1CCCN1C(=O)[C@H](N)Cc1ccccc1 [Example 6, D-Phe-Pro-NH(CH2)5 NHC(NH)NH2.HCl]",390 ng/mL
7,"N=C(N)NCCCNC(=O)[C@@H]1CCCN1C(=O)[C@H](N)Cc1ccccc1 [Example 7, D-Phe-Pro-NH(CH2)3 NHC(NH)NH2.HCl]",490 ng/mL
8,"N=C(N)NCc1ccc(CNC(=O)[C@@H]2CCCN2C(=O)[C@H](N)Cc2ccccc2)cc1 [Example 9, D-Phe-Pro-p-NHCH2 C6 H4 CH2 NHC(NH)NH2.2TFA]","> 91,000 ng/mL"
9,"NCc1ccc(CNC(=O)[C@@H]2CCCN2C(=O)[C@H](N)Cc2ccccc2)cc1 [Example 10, D-Phe-Pro-p-NHCH2 C6 H4 CH2 NH2.HCl]",420 ng/mL
10,"Cl.NCc1cccc(CNC(=O)[C@@H]2CCCN2C(=O)[C@H](N)Cc2ccccc2)c1 [Example 11, D-Phe-Pro-m-NHCH2 C6 H4 CH2 NH2.HCl]","8,800 ng/mL"
11,"Nc1ccc(CNC(=O)[C@@H]2CCCN2C(=O)[C@H](N)Cc2ccccc2)cc1 [Example 13, D-Phe-Pro-p-NHCH2 C6 H4 NH2.HCl]",660 ng/mL
12,"Cl.Nc1ccc(CCNC(=O)[C@@H]2CCCN2C(=O)[C@H](N)Cc2ccccc2)cc1 [Example 14, D-Phe-Pro-p-NHCH2 CH2 C6 H4 NH2.HCl]","21,000 ng/mL"
13,"Nc1ccc(CNC(=O)[C@@H]2CCCN2C(=O)[C@@H](CC2CCCCC2)NCC(=O)O)cc1 [Example 62, HO2 CCH2 -D-Cha-Pro-4-NHCH2 C6 H4 NH2.HCl]",54 ng/mL
14,"Nc1ccc(CCNC(=O)[C@@H]2CCCN2C(=O)[C@@H](CC2CCCCC2)NCC(=O)O)cc1 [Example 63, HO2 CCH2 -D-Cha-Pro-4-NHCH2 CH2 C6 H4 NH2.HCl]",680 ng/mL
15,"Cl.N=C(N)c1cc(CNC(=O)[C@@H]2CCCN2C(=O)[C@@H](CC2CCCCC2)NCC(=O)O)cs1 [Example 65, HO2 CCH2 -D-Cha-Pro-4-NHCH2 -2-amidinothiophene.HCl]",1 ng/mL
16,D-Phe-Pro-p-NHCH2 C6 H4 C(NH)NH2.HCl [Example 15],9 ng/mL

# System: Human plasma
# Assay: Human plasma anticoagulation, activated partial thromboplastin time (APTT)
# Assay type: biochemical
# Conditions: concentration required to double the APTT, linear extrapolation
# Description: as §1, §2
row,Molecule,Human Plasma Anticoagulation 2× Clotting time (ng/mL) APTT [ng/mL]
1,"Cl.N=C(N)c1cc(CNC(=O)[C@@H]2CCCN2C(=O)[C@@H](CC2CCCCC2)NCC(=O)O)cs1 [Example 65, HO2 CCH2 -D-Cha-Pro-4-NHCH2 -2-amidinothiophene.HCl]",48
2,D-Phe-Pro-p-NHCH2 C6 H4 C(NH)NH2.HCl [Example 15],89
